Series [1] concerns PPARγ. Kind of series: PPARγ mRNA expression in adipocytes (real-time PCR). The format is cell-based, human. Conditions: for PPAR gamma mRNA: differentiating adipocytes transfected with oligomeric compound; for PPAR gamma (mRNA expression): adipocytes, 250 nM oligomeric compound, day nine post-transfection, relative to control (1.0). For orientation: Real-time PCR tracks product formation cycle by cycle.

For series [2], the system named is HSL. Nature of the series: HSL mRNA expression in adipocytes (real-time PCR). Conditions: for HSL mRNA: differentiating adipocytes transfected with oligomeric compound; for HSL (mRNA expression): adipocytes, 250 nM oligomeric compound, day nine post-transfection, relative to control (1.0). The format is cell-based, human.
Series [3] deals with aP2. Kind of series: aP2 mRNA expression in adipocytes (real-time PCR). The format is cell-based, human. The following applies: for aP2 mRNA / AP2 mRNA: differentiating adipocytes transfected with oligomeric compound; for aP2 mRNA: Table 75; for AP2 (mRNA expression): adipocytes, 250 nM oligomeric compound, day nine post-transfection, relative to control (1.0).
The subject of series [4] is adipocytes. Kind of series: Triglyceride accumulation assay in adipocytes. The format is cell-based, human.
For series [5], the system named is Glut4. Kind of series: Glut4 mRNA expression in adipocytes (real-time PCR). The format is cell-based, human. Conditions: for GLUT4 mRNA: differentiating adipocytes transfected with oligomeric compound; for Glut4 (mRNA expression): adipocytes, 250 nM oligomeric compound, day nine post-transfection, relative to control (1.0).
The test system of series [6] is BJ, B16-F10, T47D, T47Dp53 and HeLa cells. Nature of the series: Cell cycle assay (propidium iodide flow cytometry), cell line panel. The format is cell-based. The following applies: 150 nM oligomeric compound, 4.5 μg/ml LIPOFECTIN, after 72 hours, propidium iodide flow cytometry. In general terms: In flow cytometry, cells or beads pass a laser one at a time.
The subject of series [7] is HuVECs. Nature of the series: Endothelial tube formation assay in HuVECs. Conditions: 75 nM oligomeric compound.
[8] abbreviates: differentiating adipocytes transfected with oligomeric compound, Table 75.
Setting [9] is: adipocytes, 250 nM oligomeric compound, relative to control (1.0), Table 15.
Setting [10] is: adipocytes, 250 nM oligomeric compound, relative to control (1.0), Table 16.
[11] abbreviates: differentiating adipocytes transfected with oligomeric compound.

In the oligonucleotide strings, read from the 5' end, every base follows the letter of its sugar. An asterisk marks phosphorothioate; unmarked linkages are phosphodiester. Other units and linkages are bracketed, terminal groups are in braces. A string of capitals states the bases alone. e = 2'-O-(2-methoxyethyl) (MOE); [5mC] = 5-methylcytosine

With “327911 (antisense eG*e[5mC]*eT*eA*e[5mC]*e[5mC]*eT*eG*e[5mC]*eA*e[5mC]*eT*eG*eT*eA*eA*eG*e[5mC]*eA*e[5mC]*eT*eT*eT*eT) [compound 327911]”, the “PPAR gamma mRNA” value in series [1] (Table 75) is recorded as 75 percentage of untreated control (UTC). The “HSL mRNA” value in series [2] (Table 75) is 71 percentage of untreated control (UTC). Also, the “aP2 mRNA” value in series [3] was 76 percentage of untreated control (UTC). Further, in series [4] (setting [8]), the “TG (triglyceride accumulation)” value was 59 percentage of untreated control (UTC). In addition, in series [5] (Table 75), the “GLUT4 mRNA” value is 48 percentage of untreated control (UTC). In addition, in series [6], the “G1 (percentage of cells in phase of the cell cycle)” value stood at 49.9%, the “G2/M (percentage of cells in phase of the cell cycle)” value was 20%, the “S (percentage of cells in phase of the cell cycle)” value is 30.1% and the “SubG1 (percentage of cells in phase of the cell cycle)” value came to 10.9%. The “aneuploid (percentage of cells)” value in series [6] came to 16.5%. Moreover, the “% Activity Relative to UTC (tube formation)” value (“% Activity Relative to UTC” for short) in series [7] (Table 57) was found to be 75.9%.

In the case of “327888 (antisense eA*eA*eT*eG*e[5mC]*e[5mC]*e[5mC]*e[5mC]*eT*eA*eA*eA*eA*eA*eT*e[5mC]*e[5mC]*eT*eT*eA*eT) [compound 327888]”, the “PPAR gamma (mRNA expression)” value in series [1] (Table 15) worked out at 1.36; in series [1] (Table 16) it was 0.66. Moreover, the “PPAR gamma mRNA” value in series [1] was 103 percentage of untreated control (UTC). For the same substance, the “HSL (mRNA expression)” value is reported as 1.38 in series [2] (Table 15) and 0.50 in series [2] (Table 16). Moreover, the “HSL mRNA” value in series [2] was 134 percentage of untreated control (UTC). In addition, the “AP2 (mRNA expression)” value in series [3] (Table 15) came out at 1.18; in series [3] (Table 16), 0.47. In addition, the “AP2 mRNA” value in series [3] is given as 102 percentage of untreated control (UTC). The “TG (triglyceride accumulation)” value in series [4] (setting [9]) is given as 0.98; in series [4] (setting [10]), 0.44; in series [4] (setting [11]) it was 132 percentage of untreated control (UTC). The entries for the “Glut4 (mRNA expression)” value in series [5] (Table 15) and in series [5] (Table 16) were 1.37 and 0.17, respectively. For the same substance, the “GLUT4 mRNA” value in series [5] is given as 84 percentage of untreated control (UTC). In addition, in series [6], the “G1 (percentage of cells in phase of the cell cycle)” value is given as 53.7%. For the same substance, the “G2/M (percentage of cells in phase of the cell cycle)” value in series [6] came to 16.7%. The “S (percentage of cells in phase of the cell cycle)” value in series [6] worked out at 29.5%. For the same substance, the “SubG1 (percentage of cells in phase of the cell cycle)” value in series [6] is reported as 13.3%. In addition, in series [6], the “aneuploid (percentage of cells)” value came to 12.9%. The “% Activity Relative to UTC” value in series [7] (Table 56) is given as 100.0%.

Consider “327933 (antisense eA*eA*eG*eG*eG*eA*eT*eT*e[5mC]*e[5mC]*eT*eG*eG*eG*eA*eA*eA*eA*e[5mC]*eT*eG*eG*eA*e[5mC]) [compound 327933]”, for which the “PPAR gamma (mRNA expression)” value in series [1] (Table 15) turned out to be 1.52. Moreover, in series [1], the “PPAR gamma mRNA” value is 100 percentage of untreated control (UTC). The “HSL (mRNA expression)” value in series [2] (Table 15) came out at 1.35. In series [2], the “HSL mRNA” value was 132 percentage of untreated control (UTC). Further, the “AP2 (mRNA expression)” value in series [3] (Table 15) was 1.46. Moreover, the “AP2 mRNA” value in series [3] is given as 82 percentage of untreated control (UTC). The “TG (triglyceride accumulation)” value in series [4] (setting [9]) worked out at 1.48. For the same substance, the “TG (triglyceride accumulation)” value in series [4] (setting [11]) is on record as 127 percentage of untreated control (UTC). The “Glut4 (mRNA expression)” value in series [5] (Table 15) was determined as 2.52. The “GLUT4 mRNA” value in series [5] is listed as 127 percentage of untreated control (UTC). For the same substance, in series [6], the “G1 (percentage of cells in phase of the cell cycle)” value is given as 49.6%, the “G2/M (percentage of cells in phase of the cell cycle)” value came out at 19.1%, the “S (percentage of cells in phase of the cell cycle)” value stood at 31.3% and the “SubG1 (percentage of cells in phase of the cell cycle)” value is 10.2%. Besides, the “aneuploid (percentage of cells)” value in series [6] stood at 15.9%. Also, the “% Activity Relative to UTC” value in series [7] (Table 58) amounted to 59.3%.

Consider “327934 (antisense eG*eG*eT*eA*e[5mC]*eA*eA*eT*e[5mC]*eA*eA*e[5mC]*eG*eG*eT*e[5mC]*eG*eA*eT*eG*eG*eT) [compound 327934]”, for which the “PPAR gamma (mRNA expression)” value in series [1] (Table 15) is on record as 0.97; in series [1] (Table 16), 0.72. In addition, the “HSL (mRNA expression)” value in series [2] (Table 15) is reported as 1.02; in series [2] (Table 16), 0.64. Moreover, the “AP2 (mRNA expression)” value in series [3] (Table 15) stood at 1.20; in series [3] (Table 16), 0.66. The “TG (triglyceride accumulation)” value came out at 0.99 in series [4] (setting [9]) and 0.62 in series [4] (setting [10]). Also, the “Glut4 (mRNA expression)” value in series [5] (Table 15) was found to be 1.22; in series [5] (Table 16) it was 0.44. For the same substance, the “G1 (percentage of cells in phase of the cell cycle)” value in series [6] is on record as 54.4%. Further, the “G2/M (percentage of cells in phase of the cell cycle)” value in series [6] stood at 17.4%. Further, the “S (percentage of cells in phase of the cell cycle)” value in series [6] is reported as 28.2%. Besides, in series [6], the “SubG1 (percentage of cells in phase of the cell cycle)” value worked out at 6.6%. For the same substance, the “aneuploid (percentage of cells)” value in series [6] stood at 17%. The “% Activity Relative to UTC” value in series [7] (Table 58) was 51.9%.

On to “327889 (antisense eG*eT*eG*eG*eT*eA*eA*eT*e[5mC]*e[5mC]*e[5mC]*eT*eG*eG*e[5mC]*eA*eA*eT*eG*eT*eG*eA*eT) [compound 327889]”, for which the results for the “PPAR gamma (mRNA expression)” value in series [1] (Table 15) and in series [1] (Table 16) were 0.71 and 0.82, respectively. Also, the results for the “HSL (mRNA expression)” value in series [2] (Table 15) and in series [2] (Table 16) were 0.59 and 0.54, respectively. Moreover, the figures for the “AP2 (mRNA expression)” value in series [3] (Table 15) and in series [3] (Table 16) were 0.69 and 0.57, respectively. The “TG (triglyceride accumulation)” value in series [4] (setting [9]) is reported as 0.47; in series [4] (setting [10]) it was 0.46. The “Glut4 (mRNA expression)” value was determined as 0.55 in series [5] (Table 15) and 0.46 in series [5] (Table 16). The “G1 (percentage of cells in phase of the cell cycle)” value in series [6] is listed as 53.1%. The “G2/M (percentage of cells in phase of the cell cycle)” value in series [6] came out at 14.4%. The “S (percentage of cells in phase of the cell cycle)” value in series [6] came to 32.5%. Also, the “SubG1 (percentage of cells in phase of the cell cycle)” value in series [6] is 8.2%. The “aneuploid (percentage of cells)” value in series [6] stood at 10.5%. The “% Activity Relative to UTC” value in series [7] (Table 56) turned out to be 50.0%.

With “327910 (antisense eT*eG*eA*eT*eA*eG*e[5mC]*e[5mC]*e[5mC]*eT*eG*eT*eA*e[5mC]*eA*eA*eT*eG*e[5mC]*eT*eG*e[5mC]*eT) [compound 327910]”, the “PPAR gamma mRNA” value in series [1] (Table 75) is listed as 39 percentage of untreated control (UTC). In addition, in series [2] (Table 75), the “HSL mRNA” value is recorded as 32 percentage of untreated control (UTC). Besides, the “aP2 mRNA” value in series [3] is 35 percentage of untreated control (UTC). The “TG (triglyceride accumulation)” value in series [4] (setting [8]) is 24 percentage of untreated control (UTC). The “GLUT4 mRNA” value in series [5] (Table 75) was 16 percentage of untreated control (UTC). In series [6], the “G1 (percentage of cells in phase of the cell cycle)” value was determined as 49.5%, the “G2/M (percentage of cells in phase of the cell cycle)” value is given as 17.5%, the “S (percentage of cells in phase of the cell cycle)” value is 33% and the “SubG1 (percentage of cells in phase of the cell cycle)” value is listed as 9.3%. Besides, the “aneuploid (percentage of cells)” value in series [6] amounted to 13.1%. In series [7] (Table 57), the “% Activity Relative to UTC” value is listed as 55.2%.

The values above are taken from patent US8178506B2, “Oligomeric compounds and compositions for use in modulation of small non-coding RNAs” (Regulus Therapeutics Inc., priority 2003, dated 2012).
